For this assay, the target named is T1, CFTR (Homo sapiens, UniProt P13569, DEL508-508).
T1 construct: endogenous in cells; host or cells: primary human bronchial epithelial cells from CF subjects (F508del/MF-HBE), differentiated at air-liquid interface
Briefly: HBE2 assay: Ussing chamber assay of CFTR-mediated short-circuit currents. The assay is classed as cell-based. The settings on record: F508del/MF-HBE cells, with 44 nM potentiator, 18-24 hours, 20% human serum; for Emax: read-out: HBE2 Max activity (%). The protocol: Ussing Chamber Assay of CFTR-Mediated Short-Circuit Currents
After four days the apical media was removed, and the cells were grown at an air liquid interface for >14 days prior to use.
To isolate the CFTR-mediated short-circuit (ISC) current, F508del/MF-HBE grown on Costar® Snapwell™ cell culture inserts were mounted in an Ussing chamber and the transepithelial ISC was measured under voltage-clamp recording conditions (Vhold=0 mV) at 37° C. […] The CFTR-mediated ISC (μA/cm^2) for each condition was determined from the peak forskolin response to the steady-state current following inhibition.
Identification of Corrector Compounds
The activity of the CFTR corrector compounds on the CFTR-mediated ISC was determined in Ussing chamber studies as described above.

T1 sequence (P13569 with tags, fused parts or gaps DEL508-508): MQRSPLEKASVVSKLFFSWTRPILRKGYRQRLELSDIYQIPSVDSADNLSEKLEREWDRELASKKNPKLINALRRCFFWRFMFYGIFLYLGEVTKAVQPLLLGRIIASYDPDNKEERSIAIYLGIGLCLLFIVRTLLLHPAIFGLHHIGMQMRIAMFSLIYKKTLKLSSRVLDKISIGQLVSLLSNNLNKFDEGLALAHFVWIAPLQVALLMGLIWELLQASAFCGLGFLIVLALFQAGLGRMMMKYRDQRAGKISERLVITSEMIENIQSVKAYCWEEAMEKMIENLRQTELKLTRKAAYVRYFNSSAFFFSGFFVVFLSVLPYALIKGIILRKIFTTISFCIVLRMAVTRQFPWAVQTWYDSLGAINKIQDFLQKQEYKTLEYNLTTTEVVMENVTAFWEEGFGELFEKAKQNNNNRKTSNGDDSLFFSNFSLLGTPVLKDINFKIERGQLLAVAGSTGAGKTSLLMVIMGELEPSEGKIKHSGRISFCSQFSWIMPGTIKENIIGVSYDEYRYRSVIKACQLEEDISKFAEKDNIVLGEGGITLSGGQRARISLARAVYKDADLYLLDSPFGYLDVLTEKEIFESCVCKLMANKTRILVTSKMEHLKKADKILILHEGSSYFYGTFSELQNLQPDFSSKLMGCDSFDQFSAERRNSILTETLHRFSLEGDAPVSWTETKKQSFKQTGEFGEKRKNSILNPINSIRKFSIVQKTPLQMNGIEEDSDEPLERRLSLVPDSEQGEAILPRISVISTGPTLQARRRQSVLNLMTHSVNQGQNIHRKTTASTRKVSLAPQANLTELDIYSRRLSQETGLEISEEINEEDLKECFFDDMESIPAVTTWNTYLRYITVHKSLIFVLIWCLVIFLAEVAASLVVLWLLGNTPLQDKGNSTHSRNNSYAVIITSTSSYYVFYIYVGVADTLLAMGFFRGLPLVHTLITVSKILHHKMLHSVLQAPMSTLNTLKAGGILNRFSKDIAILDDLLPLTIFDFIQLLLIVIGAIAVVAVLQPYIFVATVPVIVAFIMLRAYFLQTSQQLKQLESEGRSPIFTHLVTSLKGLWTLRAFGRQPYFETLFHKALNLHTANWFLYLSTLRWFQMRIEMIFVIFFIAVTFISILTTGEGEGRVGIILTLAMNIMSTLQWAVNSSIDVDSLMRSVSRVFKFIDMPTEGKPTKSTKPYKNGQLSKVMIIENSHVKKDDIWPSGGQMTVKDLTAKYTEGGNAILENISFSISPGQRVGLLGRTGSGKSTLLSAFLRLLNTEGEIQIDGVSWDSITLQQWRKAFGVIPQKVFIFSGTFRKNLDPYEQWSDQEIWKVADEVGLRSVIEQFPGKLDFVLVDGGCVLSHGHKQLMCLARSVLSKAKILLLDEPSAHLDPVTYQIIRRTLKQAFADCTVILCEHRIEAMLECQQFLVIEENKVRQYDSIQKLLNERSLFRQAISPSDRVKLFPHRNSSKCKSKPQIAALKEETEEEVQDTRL

For `Cc1cccc(C)c1-c1cc2nc(n1)NS(=O)(=O)c1cccc(c1)C(=O)N(Cc1cncc(N(C)C3CCC3)n1)[C@H](CC1(C)CC1)CO2` [Compound 1668], the EC50 was < 1000 nM and the Emax was > 60%. The “HBE2 Activity at 3 μM (%)” value (3 μM) is “+++ (+++ is >60+)”. Take `Cc1cccc(C)c1-c1cc2nc(n1)NS(=O)(=O)c1cccc(c1)C(=O)N(Cc1cncc(N(C)C3CCC3)n1)[C@@H]1CCN(C3CC4(CC4)C3)C[C@H]1O2` [Compound 1767]: the “HBE2 Activity at 3 μM (%)” value (3 μM corrector) is given as “+++ (+++ is >60+)”.

On to `Cc1cccc(C)c1-c1cc2nc(n1)NS(=O)(=O)c1cccc(c1)C(=O)N(Cc1cnc3cc(C(C)C)n(C)c3n1)[C@H](CC1CCCCC1)CO2` [Compound 1934], for which the “HBE2 Activity at 3 μM (%)” value (3 μM corrector) is recorded as “+++ (+++ is >60+)”.

As to `CC[C@@H]1CCCN1c1cncc(CN2C(=O)c3cccc(c3)S(=O)(=O)Nc3nc(cc(-c4c(C)cccc4C)n3)OC[C@H]2CCC(C)(C)C)n1` [Compound 1816], the “HBE2 Activity at 3 μM (%)” value (3 μM corrector) was “+++ (+++ is >60+)”.

As to `Cc1cccc(C)c1-c1cc2nc(n1)NS(=O)(=O)c1cccc(c1)C(=O)N(Cc1cncc(N3CC[C@H]4CC[C@H]43)n1)[C@H](CCC(C)(C)C)CO2` (stereo in doubt) [Compound 1855], the “HBE2 Activity at 3 μM (%)” value (3 μM corrector) is listed as “+++ (+++ is >60+)”. With `Cc1cccc(C)c1-c1cc2nc(n1)NS(=O)(=O)c1cccc(c1)C(=O)N(Cc1ncc(OC3CCCC3)c[n+]1[O-])[C@H](CC(C)C)CO2` [Compound 1305, (11R)-12-[[5-(Cyclopentoxy)-1-oxido-pyrimidin-1-ium-2-yl]methyl]-6-(2,6-dimethylphenyl)-11-isobutyl-2,2-dioxo-9-oxa-2λ^6-thia-3,5,12,19-tetrazatricyclo[12.3.1.14,8]nonadeca-1(18),4(19),5,7,14,16-hexaen-13-one], where the note is “3 μM”, the “HBE2 Activity at 3 μM (%)” value is “+++ (+++ is >60+)”. As for `Cc1cccc(C)c1-c1cc2nc(n1)NS(=O)(=O)c1cccc(c1)C(=O)N(Cc1cncc(N3CC4(CCC4)[C@H]3C(C)C)n1)[C@H](CC(C)(C)C)CO2` [Compound 1752], the “HBE2 Activity at 3 μM (%)” value (3 μM corrector) is “+++ (+++ is >60+)”. Take `Cc1cccc(C)c1-c1cc2nc(n1)NS(=O)(=O)c1cccc(c1)C(=O)N(Cc1cccc(N3CCC[C@@]3(C)CO)n1)[C@H](CC(C)(C)C)CO2` (stereo in doubt) [Compound 1585]: where the note is “3 μM”, the “HBE2 Activity at 3 μM (%)” value was “+++ (+++ is >60+)”. For `Cc1cccc(C)c1-c1cc2nc(n1)NS(=O)(=O)c1cccc(c1)C(=O)N(Cc1cncc(N3CC[C@H]4CC[C@H]43)n1)[C@H](CCC(C)(C)C)CO2` [Compound 1854], the “HBE2 Activity at 3 μM (%)” value (3 μM corrector) was “+++ (+++ is >60+)”. As to `COCC1(N(C)c2cncc(CN3C(=O)c4cccc(c4)S(=O)(=O)Nc4nc(cc(-c5c(C)cccc5C)n4)OC[C@H]3CC(C)(C)C)n2)CCC1` [Compound 1635], the “HBE2 Activity at 3 μM (%)” value (3 μM) is recorded as “+++ (+++ is >60+)”. As to `Cc1cccc(C)c1-c1cc2nc(n1)NS(=O)(=O)c1cccc(c1)C(=O)N(Cc1cnc(C)c(N3CC[C@H]3C)n1)[C@H](CC(C)(C)C)CO2` [Compound 1833], the “HBE2 Activity at 3 μM (%)” value (3 μM corrector) was “+++ (+++ is >60+)”.

As to `Cc1cccc(C)c1-c1cc2nc(n1)NS(=O)(=O)c1cccc(c1)C(=O)N(Cc1cnc3cc(C(C)C)n(C)c3n1)[C@H](CC1(C)CCC1)CO2` [Compound 1829], the “HBE2 Activity at 3 μM (%)” value (3 μM corrector) is “+++ (+++ is >60+)”. Take `Cc1cccc(C)c1-c1cc2nc(n1)NS(=O)(=O)c1cccc(c1)C(=O)N(Cc1cncc(N3CCCC3=O)n1)[C@H](CC(C)(C)C)CO2` [Compound 1652]: the “HBE2 Activity at 3 μM (%)” value (3 μM) is recorded as “+++ (+++ is >60+)”. Turning to `COCC1CC2(CCN2c2cncc(CN3C(=O)c4cccc(c4)S(=O)(=O)Nc4nc(cc(-c5c(C)cccc5C)n4)OC[C@H]3CC(C)(C)C)n2)C1` (stereo partly drawn) [Compound 1706], the “HBE2 Activity at 3 μM (%)” value (3 μM) is “+++ (+++ is >60+)”. As for `Cc1cccc(C)c1-c1cc2nc(n1)NS(=O)(=O)c1cccc(c1)C(=O)N(Cc1ncc(OC(C)C)cn1)[C@H](COC(C)C)CO2` [Compound 1957], the “HBE2 Activity at 3 μM (%)” value (3 μM corrector) is listed as “+++ (+++ is >60+)”.

For `Cc1cccc(C)c1-c1cc2nc(n1)NS(=O)(=O)c1cccc(c1)C(=O)N(Cc1cncc(N(C)CC(C)C)n1)[C@H](CC1(C)CCC1)CO2` [Compound 1774], the “HBE2 Activity at 3 μM (%)” value (3 μM corrector) is “+++ (+++ is >60+)”. Consider `Cc1cccc(C)c1-c1cc2nc(n1)NS(=O)(=O)c1cccc(c1)C(=O)N(Cc1cncc(N(C)C3CCC3)n1)[C@H](C1CC(C)(C)C1)CO2` (stereo in doubt) [Compound 1896], for which, where the note is “3 μM corrector”, the “HBE2 Activity at 3 μM (%)” value is on record as “+++ (+++ is >60+)”. For the compound `CCOc1cnc(CN2C(=O)c3cccc(c3)S(=O)(=O)Nc3nc(cc(-c4c(C)cccc4C)n3)OC[C@H]2CCC2CC2)nc1` [Compound 1596], the “HBE2 Activity at 3 μM (%)” value (3 μM) was “+++ (+++ is >60+)”. In the case of `Cc1cccc(C)c1-c1cc2nc(n1)NS(=O)(=O)c1cccc(c1)C(=O)N(Cc1cncc(N3CC[C@@H]4CC[C@@H]43)n1)[C@H](CCC1CC1)CO2` [Compound 1922], the “HBE2 Activity at 3 μM (%)” value (3 μM corrector) is recorded as “+++ (+++ is >60+)”. Take `Cc1cccc(C)c1-c1cc2nc(n1)NS(=O)(=O)c1cccc(c1)C(=O)N(Cc1cncc(N3CCC[C@H]4CC[C@H]43)n1)[C@H](CC(C)(C)C)CO2` (single isomer, unassigned) [Compound 1316]: where the note is “3 μM”, the “HBE2 Activity at 3 μM (%)” value is “+++ (+++ is >60+)”. With `Cc1cccc(C)c1-c1cc2nc(n1)NS(=O)(=O)c1cccc(c1)C(=O)N(Cc1cncc(N3CC[C@H]3C)n1)[C@H](CC(C)(C)F)CO2` [Compound 1801], under “3 μM corrector”, the “HBE2 Activity at 3 μM (%)” value was “+++ (+++ is >60+)”. As for `Cc1cccc(C)c1-c1cc2nc(n1)NS(=O)(=O)c1cccc(c1)C(=O)N(Cc1cncc(N(C)[C@@H]3C[C@H]4COC[C@H]43)n1)[C@H](CC(C)(C)C)CO2` (stereo in doubt) [Compound 1677], the “HBE2 Activity at 3 μM (%)” value (3 μM) is “+++ (+++ is >60+)”. On to `Cc1cccc(C)c1-c1cc2nc(n1)NS(=O)(=O)c1cccc(c1)C(=O)N(Cc1cncc(N(C)C3CCC3)n1)[C@H](CC(C)(C)C(F)(F)F)CO2` [Compound 1689], for which the EC50 was < 1000 nM and the Emax was > 60%. For the same compound, under “3 μM”, the “HBE2 Activity at 3 μM (%)” value is “+++ (+++ is >60+)”. Regarding `Cc1cccc(C)c1-c1cc2nc(n1)NS(=O)(=O)c1cccc(c1)C(=O)N(Cc1cncc(N(C)CC(C)C)n1)[C@H](CCC1CC1)CO2` [Compound 1717], the “HBE2 Activity at 3 μM (%)” value (3 μM corrector) was “+++ (+++ is >60+)”.

For the compound `Cc1cccc(C)c1-c1cc2nc(n1)NS(=O)(=O)c1cccc(c1)C(=O)N(Cc1cncc(N3CC[C@H]4CN(C(=O)OC(C)C)CC43)n1)[C@H](CC(C)(C)C)CO2` (stereo in doubt) [Compound 1664], the “HBE2 Activity at 3 μM (%)” value (3 μM) is “+++ (+++ is >60+)”. As for `CCC(C)(C)C[C@@H]1COc2cc(-c3c(C)cccc3C)nc(n2)NS(=O)(=O)c2cccc(c2)C(=O)N1Cc1cncc(N2CCCC[C@H]2C)n1` [Compound 1862], under “3 μM corrector”, the “HBE2 Activity at 3 μM (%)” value is “++ (++ is 30-60%)”. As to `COC[C@@H](C)N(C)c1cncc(CN2C(=O)c3cccc(c3)S(=O)(=O)Nc3nc(cc(-c4c(C)cccc4C)n3)OC[C@H]2CCC(C)(C)C)n1` [Compound 1851], the “HBE2 Activity at 3 μM (%)” value (3 μM corrector) is given as “+++ (+++ is >60+)”.

On to `Cc1cccc(C)c1-c1cc2nc(n1)NS(=O)(=O)c1cccc(c1)C(=O)N(Cc1cncc(C3CCCCO3)n1)[C@H](CCC(C)(C)C)CO2` (stereo in doubt) [Compound 1880], for which the “HBE2 Activity at 3 μM (%)” value (3 μM corrector) is recorded as “+++ (+++ is >60+)”. With `COC[C@H]1C[C@H](N(C)c2cncc(CN3C(=O)c4cccc(c4)S(=O)(=O)Nc4nc(cc(-c5c(C)cccc5C)n4)OC[C@H]3CC(C)(C)C)n2)C1` [Compound 1620], the “HBE2 Activity at 3 μM (%)” value (3 μM) was “+++ (+++ is >60+)”.

(Values after patent US20240150377A1, “MODULATORS OF CYSTIC FIBROSIS TRANSMEMBRANE CONDUCTANCE REGULATOR” (VERTEX PHARMACEUTICALS INCORPORATED, priority 2020, published 2024).)
